Reference: the supplement of paper PMC7214452

Legend:
Test in all cases: normalized area under the dose-response curve (viability relative to DMSO control) (fraction); higher = less sensitive (more viable cells)
Settings in all cases: exposure time not given
JJN3 (cancer type: MM) = test system: JJN3 (cancer type: MM)
Description: (§1)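 25 myeloma and 15 non-Hodgkin lymphoma cell lines were exposed to each of 76 drugs as 7-point log dilutions (0.01 nM–10 µM) in duplicate. Viability was read with CellTiter-Glo and normalised to DMSO (0.1%) and staurosporine (10 µM) plate controls. Normalised AUC was calculated by the trapezoidal method relative to the negative control.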

[1] = test system: OCI-LY1 (cancer type: DLBCL)
Description: as §1

KMS18 (cancer type: MM) = test system: KMS18 (cancer type: MM)
Description: as §1

[2] = test system: Karpas-299 (cancer type: TCL)
Description: as §1

[3] = test system: OCI-MY7 (cancer type: MM)
Description: as §1

MM1.S (cancer type: MM) = test system: MM1.S (cancer type: MM)
Description: as §1

My-La (cancer type: TCL) = test system: My-La (cancer type: TCL)
Description: as §1

XG2 (cancer type: MM) = test system: XG2 (cancer type: MM)
Description: as §1

KMS11 (cancer type: MM) = test system: KMS11 (cancer type: MM)
Description: as §1

EJM (cancer type: MM) = test system: EJM (cancer type: MM)
Description: as §1

U266 (cancer type: MM) = test system: U266 (cancer type: MM)
Description: as §1

[4] = test system: KMS28BM (cancer type: MM)
Description: as §1

[5] = test system: SU-DHL6 (cancer type: DLBCL)
Description: as §1

[6] = test system: OCI-MY5/Vec (cancer type: MM)
Description: as §1

[7] = test system: KMS28PE (cancer type: MM)
Description: as §1

[8] = test system: OCI-MY5/CRBN (cancer type: MM)
Description: as §1

[9] = test system: KMS12PE (cancer type: MM)
Description: as §1

FR4 (cancer type: MM) = test system: FR4 (cancer type: MM)
Description: as §1

Se-Ax (cancer type: TCL) = test system: Se-Ax (cancer type: TCL)
Description: as §1

[10] = test system: SR-786 (cancer type: TCL)
Description: as §1

[11] = test system: HuT 78 (cancer type: TCL)
Description: as §1

L363 (cancer type: MM) = test system: L363 (cancer type: MM)
Description: as §1

KMS34 (cancer type: MM) = test system: KMS34 (cancer type: MM)
Description: as §1

[12] = test system: SU-DHL2 (cancer type: DLBCL)
Description: as §1

[13] = test system: RPMI 8226 (cancer type: MM)
Description: as §1

[14] = test system: OCI-MY5 (cancer type: MM)
Description: as §1

[15] = test system: OCI-LY3 (cancer type: DLBCL)
Description: as §1

AMO1 (cancer type: MM) = test system: AMO1 (cancer type: MM)
Description: as §1

OPM2 (cancer type: MM) = test system: OPM2 (cancer type: MM)
Description: as §1

MM1.R (cancer type: MM) = test system: MM1.R (cancer type: MM)
Description: as §1

KMS26 (cancer type: MM) = test system: KMS26 (cancer type: MM)
Description: as §1

[16] = test system: Mino (cancer type: Mantle)
Description: as §1

[17] = test system: NCI-H929 (cancer type: MM)
Description: as §1

LP1 (cancer type: MM) = test system: LP1 (cancer type: MM)
Description: as §1

[18] = test system: JeKo-1 (cancer type: Mantle)
Description: as §1

SKMM2 (cancer type: MM) = test system: SKMM2 (cancer type: MM)
Description: as §1

[19] = test system: OCI-LY19 (cancer type: DLBCL)
Description: as §1

[20] = test system: JVM2 (cancer type: Mantle)
Description: as §1

[21] = test system: Granta-519 (cancer type: Mantle)
Description: as §1

[22] = test system: SU-DHL1 (cancer type: TCL)
Description: as §1

For `COc1nc(N)nc2c1ncn2[C@@H]1O[C@H](CO)[C@@H](O)[C@@H]1O` [Nelarabine], the “normalized area under the dose-response curve” value (“normalized area” for short) (JJN3 (cancer type: MM)) was 0.987, the “normalized area” value [1] was 0.996 and the “normalized area” value (KMS18 (cancer type: MM)) was 0.973. The “normalized area” value [2] was 0.972, the “normalized area” value [3] was 0.94 and the “normalized area” value (MM1.S (cancer type: MM)) was 0.91. For the same molecule, the “normalized area” value (My-La (cancer type: TCL)) was 0.929, the “normalized area” value (XG2 (cancer type: MM)) was 0.935 and the “normalized area” value (KMS11 (cancer type: MM)) was 0.992. The “normalized area” value (EJM (cancer type: MM)) was 0.889, the “normalized area” value (U266 (cancer type: MM)) was 0.985 and the “normalized area” value [4] was 0.924. The “normalized area” value [5] was 0.989, the “normalized area” value [6] was 0.946 and the “normalized area” value [7] was 0.951. For the same molecule, the “normalized area” value [8] was 0.928, the “normalized area” value [9] was 0.92 and the “normalized area” value (FR4 (cancer type: MM)) was 1.01. The “normalized area” value (Se-Ax (cancer type: TCL)) was 0.779, the “normalized area” value [10] was 0.902 and the “normalized area” value [11] was 0.913. For the same molecule, the “normalized area” value (L363 (cancer type: MM)) was 0.92, the “normalized area” value (KMS34 (cancer type: MM)) was 0.88 and the “normalized area” value [12] was 0.937. The “normalized area” value [13] was 0.915, the “normalized area” value [14] was 0.98 and the “normalized area” value [15] was 1.01. The “normalized area” value (AMO1 (cancer type: MM)) was 0.948, the “normalized area” value (OPM2 (cancer type: MM)) was 0.978 and the “normalized area” value (MM1.R (cancer type: MM)) was 0.85. For the same molecule, the “normalized area” value (KMS26 (cancer type: MM)) was 0.861, the “normalized area” value [16] was 0.978 and the “normalized area” value [17] was 0.95. For the same molecule, the “normalized area” value (LP1 (cancer type: MM)) was 0.94, the “normalized area” value [18] was 0.921 and the “normalized area” value (SKMM2 (cancer type: MM)) was 0.96. For the same molecule, the “normalized area” value [19] was 0.993, the “normalized area” value [20] was 0.883 and the “normalized area” value [21] was 0.99. The “normalized area” value [22] was 0.858.
`Cc1cn(-c2cc(NC(=O)c3ccc(C)c(Nc4nccc(-c5cccnc5)n4)c3)cc(C(F)(F)F)c2)cn1` [Nilotinib] was tested, and the “normalized area” value (JJN3 (cancer type: MM)) was 0.512, the “normalized area” value [1] was 0.948 and the “normalized area” value (KMS18 (cancer type: MM)) was 0.865. The “normalized area” value [2] was 0.896, the “normalized area” value [3] was 0.88 and the “normalized area” value (MM1.S (cancer type: MM)) was 0.78. For the same molecule, the “normalized area” value (My-La (cancer type: TCL)) was 0.978, the “normalized area” value (XG2 (cancer type: MM)) was 0.959 and the “normalized area” value (KMS11 (cancer type: MM)) was 0.736. The “normalized area” value (EJM (cancer type: MM)) was 0.904, the “normalized area” value (U266 (cancer type: MM)) was 0.826 and the “normalized area” value [4] was 0.871. The “normalized area” value [5] was 0.918, the “normalized area” value [6] was 0.953 and the “normalized area” value [7] was 0.695. For the same molecule, the “normalized area” value [8] was 0.863, the “normalized area” value [9] was 0.88 and the “normalized area” value (FR4 (cancer type: MM)) was 0.838. For the same molecule, the “normalized area” value (Se-Ax (cancer type: TCL)) was 0.798, the “normalized area” value [10] was 0.929 and the “normalized area” value [11] was 0.944. For the same molecule, the “normalized area” value (L363 (cancer type: MM)) was 0.634, the “normalized area” value (KMS34 (cancer type: MM)) was 0.604 and the “normalized area” value [12] was 0.91. For the same molecule, the “normalized area” value [13] was 0.89, the “normalized area” value [14] was 0.39 and the “normalized area” value [15] was 0.946. The “normalized area” value (AMO1 (cancer type: MM)) was 0.693, the “normalized area” value (OPM2 (cancer type: MM)) was 0.443 and the “normalized area” value (MM1.R (cancer type: MM)) was 0.81. The “normalized area” value (KMS26 (cancer type: MM)) was 0.948, the “normalized area” value [16] was 0.942 and the “normalized area” value [17] was 0.86. The “normalized area” value (LP1 (cancer type: MM)) was 0.908, the “normalized area” value [18] was 0.94 and the “normalized area” value (SKMM2 (cancer type: MM)) was 0.889. The “normalized area” value [19] was 0.841, the “normalized area” value [20] was 0.741 and the “normalized area” value [21] was 0.953. For the same molecule, the “normalized area” value [22] was 0.851.
With `COC(=O)c1ccc2c(c1)NC(=O)/C2=C(\Nc1ccc(N(C)C(=O)CN2CCN(C)CC2)cc1)c1ccccc1` [Nintedanib] the “normalized area” value (JJN3 (cancer type: MM)) was 0.979, the “normalized area” value [1] was 0.98 and the “normalized area” value (KMS18 (cancer type: MM)) was 0.934. The “normalized area” value [2] was 0.862, the “normalized area” value [3] was 0.97 and the “normalized area” value (MM1.S (cancer type: MM)) was 0.79. For the same molecule, the “normalized area” value (My-La (cancer type: TCL)) was 0.902, the “normalized area” value (XG2 (cancer type: MM)) was 0.764 and the “normalized area” value (KMS11 (cancer type: MM)) was 0.723. The “normalized area” value (EJM (cancer type: MM)) was 0.784, the “normalized area” value (U266 (cancer type: MM)) was 0.941 and the “normalized area” value [4] was 0.87. The “normalized area” value [5] was 0.919, the “normalized area” value [6] was 0.957 and the “normalized area” value [7] was 0.737. The “normalized area” value [8] was 0.929, the “normalized area” value [9] was 0.94 and the “normalized area” value (FR4 (cancer type: MM)) was 0.911. The “normalized area” value (Se-Ax (cancer type: TCL)) was 0.92, the “normalized area” value [10] was 0.828 and the “normalized area” value [11] was 0.883. For the same molecule, the “normalized area” value (L363 (cancer type: MM)) was 0.798, the “normalized area” value (KMS34 (cancer type: MM)) was 0.835 and the “normalized area” value [12] was 0.966. For the same molecule, the “normalized area” value [13] was 0.791, the “normalized area” value [14] was 0.846 and the “normalized area” value [15] was 0.992. For the same molecule, the “normalized area” value (AMO1 (cancer type: MM)) was 0.801, the “normalized area” value (OPM2 (cancer type: MM)) was 0.844 and the “normalized area” value (MM1.R (cancer type: MM)) was 0.84. The “normalized area” value (KMS26 (cancer type: MM)) was 0.764, the “normalized area” value [16] was 0.956 and the “normalized area” value [17] was 0.87. For the same molecule, the “normalized area” value (LP1 (cancer type: MM)) was 0.828, the “normalized area” value [18] was 0.933 and the “normalized area” value (SKMM2 (cancer type: MM)) was 0.943. The “normalized area” value [19] was 0.906, the “normalized area” value [20] was 0.815 and the “normalized area” value [21] was 0.942. For the same molecule, the “normalized area” value [22] was 0.839.
With `C=CC(=O)Nc1cc(Nc2nccc(-c3cn(C)c4ccccc34)n2)c(OC)cc1N(C)CCN(C)C` [Osimertinib] the “normalized area” value (JJN3 (cancer type: MM)) was 0.439, the “normalized area” value [1] was 0.937 and the “normalized area” value (KMS18 (cancer type: MM)) was 0.442. The “normalized area” value [2] was 0.574, the “normalized area” value [3] was 0.42 and the “normalized area” value (MM1.S (cancer type: MM)) was 0.44. For the same molecule, the “normalized area” value (My-La (cancer type: TCL)) was 0.769, the “normalized area” value (XG2 (cancer type: MM)) was 0.422 and the “normalized area” value (KMS11 (cancer type: MM)) was 0.417. For the same molecule, the “normalized area” value (EJM (cancer type: MM)) was 0.429, the “normalized area” value (U266 (cancer type: MM)) was 0.451 and the “normalized area” value [4] was 0.53. The “normalized area” value [5] was 0.911, the “normalized area” value [6] was 0.535 and the “normalized area” value [7] was 0.476. The “normalized area” value [8] was 0.551, the “normalized area” value [9] was 0.46 and the “normalized area” value (FR4 (cancer type: MM)) was 0.582. The “normalized area” value (Se-Ax (cancer type: TCL)) was 0.445, the “normalized area” value [10] was 0.521 and the “normalized area” value [11] was 0.473. The “normalized area” value (L363 (cancer type: MM)) was 0.466, the “normalized area” value (KMS34 (cancer type: MM)) was 0.337 and the “normalized area” value [12] was 0.925. For the same molecule, the “normalized area” value [13] was 0.429, the “normalized area” value [14] was 0.399 and the “normalized area” value [15] was 0.931. For the same molecule, the “normalized area” value (AMO1 (cancer type: MM)) was 0.423, the “normalized area” value (OPM2 (cancer type: MM)) was 0.489 and the “normalized area” value (MM1.R (cancer type: MM)) was 0.45. For the same molecule, the “normalized area” value (KMS26 (cancer type: MM)) was 0.532, the “normalized area” value [16] was 0.601 and the “normalized area” value [17] was 0.47. The “normalized area” value (LP1 (cancer type: MM)) was 0.406, the “normalized area” value [18] was 0.626 and the “normalized area” value (SKMM2 (cancer type: MM)) was 0.506. For the same molecule, the “normalized area” value [19] was 0.872, the “normalized area” value [20] was 0.597 and the “normalized area” value [21] was 0.834. The “normalized area” value [22] was 0.463.
